Measured values from paper PMC4071569, “Investigation of Indolglyoxamide and Indolacetamide Analogues of Polyamines as Antimalarial and Antitrypanosomal Agents” (Marine Drugs, 2014).
pIC50: −log10 of the molar value. Where two headings read alike, the source gives them in different places.

Experiments:
Type in all cases: cell-based
[1] = tested on: Plasmodium falciparum, NF54 strain, IEF stage; assay: In vitro antimalarial activity, NF54 drug sensitive strain; conditions: for Pf SI (selectivity index for P. falciparum = IC50 L6/IC50 Pf): NF54 strain vs L6
Method: (§1) The in vitro activities against the protozoan parasites T.b. rhodesiense, and P. falciparum and cytotoxicity assessment against L6 cells were determined as reported elsewhere.

[2] = tested on: L6 rat skeletal myoblast cell line; assay: Cytotoxicity towards L6 cells; conditions: read-out: IC50 L6
Method: as §1

[3] = tested on: Trypanosoma brucei rhodesiense, STIB 900 strain, trypomastigotes stage; assay: In vitro anti-trypanosomal activity (growth inhibition); conditions: Trypanosoma brucei, read-out: IC50 T. b. rhod.
Method: as §1

[4] = L6 rat skeletal myoblast cell line, average of two independent assays
[5] = Plasmodium falciparum, NF54 strain, IEF stage, average of two independent assays, read-out: IC50 P. falc.
[6] = STIB 900 strain, trypomastigotes, average of two independent assays
[7] = NF54 strain, IEF stage, average of two independent assays, read-out: IC50 P. falc.

| pIC50 ([1]; Plasmodium falciparum, NF54, read-out: IC50 P. falc.) | pIC50 [1, 5] | pIC50 [3, 6] | Compound | pIC50 [2, 4] | Pf SI (selectivity index for P. falciparum = IC50 L6/IC50 Pf) [1] | pIC50 [3] | pIC50 ([2]; Rattus norvegicus, Myoblast) | pIC50 [1, 7] |
| --- | --- | --- | --- | --- | --- | --- | --- | --- |
|  | 5.77 | 4.20 | COc1cccc2c(C(=O)C(=O)NCCCN(CCCCCCCCCCCCN(CCCNC(=O)C(=O)c3c[nH]c4c(OC)cccc34)C(=O)OC(C)(C)C)C(=O)OC(C)(C)C)c[nH]c12 [Compound 24, Di-tert-butyl Dodecane-1,12-diylbis((3-(2-(7-methoxy-1H-indol-3-yl)-2-oxoacetamido)propyl)carbamate)] | ≤ 3.96 | ≥65 |  |  |  |
|  | 6.96 | 5.60 | O=C(NCCCNCCCCCCCCNCCCNC(=O)C(=O)c1c[nH]c2ccccc12)C(=O)c1c[nH]c2ccccc12.O=C(O)C(F)(F)F.O=C(O)C(F)(F)F [Compound 25, N^1,N^8-Bis(3-(2-(1H-indol-3-yl)-2-oxoacetamido)propyl)octane-1,8-diaminium 2,2,2-trifluoroacetate] | 4.72 | 170 |  |  |  |
|  | 6.89 | 6.11 | COc1ccc2[nH]cc(C(=O)C(=O)NCCCNCCCCCCCCNCCCNC(=O)C(=O)c3c[nH]c4ccc(OC)cc34)c2c1.O=C(O)C(F)(F)F.O=C(O)C(F)(F)F [Compound 26, N^1,N^8-Bis(3-(2-(5-methoxy-1H-indol-3-yl)-2-oxoacetamido)propyl)octane-1,8-diaminium 2,2,2-trifluoroacetate] | 4.89 | 100 |  |  |  |
|  | 6.77 | 5.66 | COc1ccc2c(C(=O)C(=O)NCCCNCCCCCCCCNCCCNC(=O)C(=O)c3c[nH]c4cc(OC)ccc34)c[nH]c2c1.O=C(O)C(F)(F)F.O=C(O)C(F)(F)F [Compound 27, N^1,N^8-Bis(3-(2-(6-methoxy-1H-indol-3-yl)-2-oxoacetamido)propyl)octane-1,8-diaminium 2,2,2-trifluoroacetate] | 4.68 | 120 |  |  |  |
|  | 6.92 | 5.68 | COc1cccc2c(C(=O)C(=O)NCCCNCCCCCCCCNCCCNC(=O)C(=O)c3c[nH]c4c(OC)cccc34)c[nH]c12.O=C(O)C(F)(F)F.O=C(O)C(F)(F)F [Compound 28, N^1,N^8-Bis(3-(2-(7-methoxy-1H-indol-3-yl)-2-oxoacetamido)propyl)octane-1,8-diaminium 2,2,2-trifluoroacetate] | 5.18 | 55 |  |  |  |
|  | 7.48 | 6.57 | O=C(NCCCNCCCCCCCCCCCCNCCCNC(=O)C(=O)c1c[nH]c2ccccc12)C(=O)c1c[nH]c2ccccc12.O=C(O)C(F)(F)F.O=C(O)C(F)(F)F [Compound 29, N^1,N^12-Bis(3-(2-(1H-indol-3-yl)-2-oxoacetamido)propyl)dodecane-1,12-diaminium 2,2,2-trifluoroacetate] | 5.64 | 70 |  |  |  |
|  | 6.52 |  | CC(C)(C)OC(=O)N(CCCCCCCCN(CCCNC(=O)Cc1c[nH]c2ccccc12)C(=O)OC(C)(C)C)CCCNC(=O)Cc1c[nH]c2ccccc12 [Compound 34, Di-tert-butyl Octane-1,8-diylbis((3-(2-(1H-indol-3-yl)acetamido)propyl)carbamate)] | 5.30 | 17 |  |  |  |
|  | 6.10 |  | CC(C)(C)OC(=O)N(CCCCCCCCCCCCN(CCCNC(=O)Cc1c[nH]c2ccccc12)C(=O)OC(C)(C)C)CCCNC(=O)Cc1c[nH]c2ccccc12 [Compound 35, Di-tert-butyl Dodecane-1,12-diylbis((3-(2-(1H-indol-3-yl)acetamido)propyl)carbamate)] | 4.35 | 56 |  |  |  |
|  | 6.82 |  | O=C(Cc1c[nH]c2ccccc12)NCCCNCCCCCCCCNCCCNC(=O)Cc1c[nH]c2ccccc12.O=C(O)C(F)(F)F.O=C(O)C(F)(F)F [Compound 37, N^1,N^8-Bis(3-(2-(1H-indol-3-yl)acetamido)propyl)octane-1,8-diaminium 2,2,2-trifluoroacetate] | 4.19 | 430 |  |  |  |
|  | 6.92 |  | O=C(Cc1c[nH]c2ccccc12)NCCCNCCCCCCCCCCCCNCCCNC(=O)Cc1c[nH]c2ccccc12.O=C(O)C(F)(F)F.O=C(O)C(F)(F)F [Compound 38, N^1,N^12-Bis(3-(2-(1H-indol-3-yl)acetamido)propyl)dodecane-1,12-diaminium 2,2,2-trifluoroacetate] | 4.72 | 160 |  |  |  |

The next lines start with the compound.

| Compound | pIC50 ([1]; Plasmodium falciparum, NF54, read-out: IC50 P. falc.) | pIC50 [1, 5] | pIC50 [3, 6] | pIC50 [2, 4] | Pf SI (selectivity index for P. falciparum = IC50 L6/IC50 Pf) [1] | pIC50 [3] | pIC50 ([2]; Rattus norvegicus, Myoblast) | pIC50 [1, 7] |
| --- | --- | --- | --- | --- | --- | --- | --- | --- |
| CCN(CC)CCCC(C)Nc1ccnc2cc(Cl)ccc12 (stereo not shown) [Chloroquine, reference compound] | 8.40 |  |  |  |  |  |  |  |
| O=C(NCCCCNCCCNC(=O)C(=O)c1c[nH]c2cc(Br)ccc12)C(=O)c1c[nH]c2cc(Br)ccc12.O=C(O)C(F)(F)F [Compound 5, 4-(2-(6-Bromo-1H-indol-3-yl)-2-oxoacetamido)-N-(3-(2-(6-bromo-1H-indol-3-yl)-2-oxoacetamido)propyl)butan-1-aminium 2,2,2-trifluoroacetate] |  | 6.60 |  | 5.26 | 22 |  |  |  |
| O=C(NCCCNCCCCNCCCNC(=O)C(=O)c1c[nH]c2cc(Br)ccc12)C(=O)c1c[nH]c2cc(Br)ccc12.O=C(O)C(F)(F)F.O=C(O)C(F)(F)F [Compound 6, N^1,N^4-Bis(3-(2-(6-bromo-1H-indol-3-yl)-2-oxoacetamido)propyl)butane-1,4-diaminium 2,2,2-trifluoroacetate] |  | 6.44 |  | 5.11 | 21 |  |  |  |
| CC(C)(C)OC(=O)N(CCCCCCCCN(CCCNC(=O)C(=O)c1c[nH]c2cc(Br)ccc12)C(=O)OC(C)(C)C)CCCNC(=O)C(=O)c1c[nH]c2cc(Br)ccc12 [Compound 7, Di-tert-butyl Octane-1,8-diylbis((3-(2-(6-bromo-1H-indol-3-yl)-2-oxoacetamido)propyl)carbamate)] |  | 6.57 |  | 4.04 | 340 |  |  |  |
| O=C(NCCCNCCCCCCCCNCCCNC(=O)C(=O)c1c[nH]c2cc(Br)ccc12)C(=O)c1c[nH]c2cc(Br)ccc12.O=C(O)C(F)(F)F.O=C(O)C(F)(F)F [Compound 8, N^1,N^8-Bis(3-(2-(6-bromo-1H-indol-3-yl)-2-oxoacetamido)propyl)octane-1,8-diaminium 2,2,2-trifluoroacetate] |  | 6.39 |  | 5.25 | 14 |  |  |  |
| O=C(NCCCNCCCCNCCCNC(=O)C(=O)c1c[nH]c2ccccc12)C(=O)c1c[nH]c2ccccc12.O=C(O)C(F)(F)F.O=C(O)C(F)(F)F [Compound 13, N^1,N^4-Bis(3-(2-(1H-indol-3-yl)-2-oxoacetamido)propyl)butane-1,4-diaminium 2,2,2-trifluoroacetate] |  | 6.92 |  | 4.22 | 500 |  |  |  |
| COc1ccc2[nH]cc(C(=O)C(=O)NCCCN(CCCCCCCCN(CCCNC(=O)C(=O)c3c[nH]c4ccc(OC)cc34)C(=O)OC(C)(C)C)C(=O)OC(C)(C)C)c2c1 [Compound 18, Di-tert-butyl Octane-1,8-diylbis((3-(2-(5-methoxy-1H-indol-3-yl)-2-oxoacetamido)propyl)carbamate)] |  | 6.89 | 5.21 | ≤ 3.92 | ≥920 |  |  |  |
| CC(C)(C)OC(=O)N(CCCCCCCCCCCCN(CCCNC(=O)C(=O)c1c[nH]c2ccccc12)C(=O)OC(C)(C)C)CCCNC(=O)C(=O)c1c[nH]c2ccccc12 [Compound 21, Di-tert-butyl Dodecane-1,12-diylbis((3-(2-(1H-indol-3-yl)-2-oxoacetamido)propyl)carbamate)] |  | 5.74 | 4.21 | ≤ 3.92 | ≥67 |  |  |  |
| COc1ccc2[nH]cc(C(=O)C(=O)NCCCN(CCCCCCCCCCCCN(CCCNC(=O)C(=O)c3c[nH]c4ccc(OC)cc34)C(=O)OC(C)(C)C)C(=O)OC(C)(C)C)c2c1 [Compound 22, Di-tert-butyl Dodecane-1,12-diylbis((3-(2-(5-methoxy-1H-indol-3-yl)-2-oxoacetamido)propyl)carbamate)] |  | 6.44 | 5.28 | 4.72 | 53 |  |  |  |
| COc1ccc2c(C(=O)C(=O)NCCCN(CCCCCCCCCCCCN(CCCNC(=O)C(=O)c3c[nH]c4cc(OC)ccc34)C(=O)OC(C)(C)C)C(=O)OC(C)(C)C)c[nH]c2c1 [Compound 23, Di-tert-butyl Dodecane-1,12-diylbis((3-(2-(6-methoxy-1H-indol-3-yl)-2-oxoacetamido)propyl)carbamate)] |  | 5.72 | 4.21 | ≤ 3.96 | ≥58 |  |  |  |
| Nc1nc(N)nc(Nc2ccc([As]3SCC(CO)S3)cc2)n1 (stereo not shown) [Melarsoprol, reference compound] |  |  |  |  |  | 8.30 |  |  |
| COc1cc([C@@H]2c3cc4c(cc3[C@H](O)[C@H]3COC(=O)[C@H]23)OCO4)cc(OC)c1OC [Podophyllotoxin, reference compound] |  |  |  |  |  |  | 7.72 |  |
| N^1,N^4-Bis(3-(2-(5-methoxy-1H-indol-3-yl)acetamido)propyl)butane-1,4-diaminium 2,2,2-trifluoroacetate [Compound 14] |  |  |  | 4.25 | 120 |  |  | 6.33 |
| N^1,N^4-Bis(3-(2-(6-methoxy-1H-indol-3-yl)acetamido)propyl)butane-1,4-diaminium 2,2,2-trifluoroacetate [Compound 15] |  |  |  | 4.27 | 110 |  |  | 6.30 |
